From article PMC12578816 (Scientific Reports, 2025)
In brackets after ≈: the same amount, converted by molar mass. Entries after “also recorded” stand apart in the source; their conditions may differ. Read-outs that look alike come from different tables or passages of the source.

How the values were obtained:
[1] = tested on: α-glucosidase (from Saccharomyces cerevisiae); assay: α-glucosidase inhibitory assay; assay type: biochemical
α-glucosidase = conditions: cited from earlier work
[2] = tested on: α-glucosidase (from Saccharomyces cerevisiae); assay: α-glucosidase enzyme kinetic analysis; conditions: for inhibition mechanism: Lineweaver–Burk plots; for Ki: secondary plot of slopes

## CC(=O)c1nccc2c1[nH]c1ccccc12 [1-acetyl-β-carboline]
[1]
  α-glucosidase inhibitory activity of isolated compounds (in words): no inhibitory activity

## O=Cc1ccc(O)cc1 [4-hydroxybenzaldehyde]
[1]
  α-glucosidase inhibitory activity of isolated compounds (in words): no inhibitory activity

## C[C@H]1O[C@H](O[C@H]2[C@H](O)[C@@H](O)[C@@H](O[C@H]3[C@H](O)[C@@H](O)C(O)O[C@@H]3CO)O[C@@H]2CO)[C@H](O)[C@@H](O)[C@@H]1N[C@H]1C=C(CO)[C@@H](O)[C@H](O)[C@H]1O (stereo partly drawn) [Acarbose, reference compound]
[1]; 10 mg/mL, n = 3, mean ± SD
  Inhibition (%): 80.2 ± 0.7%
α-glucosidase
  inhibition mechanism: competitive inhibitor
[2]
  inhibition mechanism: competitive inhibition

## Nc1ncnc2c1ncn2[C@@H]1O[C@H](CO)[C@@H](O)[C@H]1O [Adenosine]
[1]
  α-glucosidase inhibitory activity of isolated compounds (in words): exhibited α-glucosidase inhibitory activity
[2]
  inhibition mechanism: mixed-type
  Ki: 90.9 µM

## CCCCCCCCCCCCCCCC(=O)O [C16:0, Palmitic acid]
α-glucosidase; fatty acids
  inhibition mechanism: mixed-type

## OC[C@H]1O[C@H](O[C@H]2[C@H](O)[C@@H](O)[C@@H](O[C@H]3[C@H](O)[C@@H](O)C(O)O[C@@H]3CO)O[C@@H]2CO)[C@H](O)[C@@H](O)[C@@H]1N[C@@H]1[C@H](O)[C@@H](O)[C@H](O)[C@]2(CO)O[C@H]12 (stereo partly drawn) [CKD-711]
α-glucosidase
  IC50: 2.5 µg/mL (≈ 3.69 µM)

## OC[C@H]1O[C@H](O[C@H]2[C@H](O)[C@@H](O)[C@@H](O[C@H]3[C@H](O)[C@@H](O)[C@@H](O[C@H]4[C@H](O)[C@@H](O)[C@@H](O[C@H]5[C@H](O)[C@@H](O)C(O)O[C@@H]5CO)O[C@@H]4CO)O[C@@H]3CO)O[C@@H]2CO)[C@H](O)[C@@H](O)[C@@H]1N[C@@H]1[C@H](O)[C@@H](O)[C@H](O)[C@]2(CO)O[C@H]12 (stereo partly drawn) [CKD-711a]
α-glucosidase
  IC50: 6.5 µg/mL (≈ 6.49 µM)

## CCCCOC(=O)c1ccccc1C(=O)OCCCC [DBP, dibutyl phthalate]
[1]
  α-glucosidase inhibitory activity of isolated compounds (in words): exhibited α-glucosidase inhibitory activity
[2]
  inhibition mechanism: mixed-type
  Ki: 516 µM

## O=c1ccn([C@@H]2O[C@H](CO)[C@@H](O)[C@H]2O)c(=O)[nH]1 [Uridine]
[1]
  α-glucosidase inhibitory activity of isolated compounds (in words): exhibited α-glucosidase inhibitory activity
[2]
  inhibition mechanism: competitive inhibitor; also recorded: competitive inhibition
  Ki: 153 µM

## CCCCC/C=C\C/C=C\C/C=C\C/C=C\CCCC(=O)O [arachidonic acid]
α-glucosidase; fatty acids
  inhibition mechanism: mixed-type

## CC/C=C\C/C=C\C/C=C\C/C=C\C/C=C\CCCC(=O)O [eicosapentaenoic acid]
α-glucosidase; fatty acids
  inhibition mechanism: mixed-type

## O=c1c(-c2ccc(O)cc2)coc2cc(O)cc(O)c12 [genistein]
α-glucosidase
  inhibition type: non-competitive inhibitor

## CCCCC/C=C\C/C=C\CCCCCCCC(=O)O [linoleic acid]
α-glucosidase; fatty acids
  inhibition mechanism: mixed-type

## CCCCCCCC/C=C\CCCCCCCC(=O)O [oleic acid]
α-glucosidase; fatty acids
  inhibition mechanism: mixed-type

## CC/C=C\C/C=C\C/C=C\CCCCCCCC(=O)O [α-linolenic acid]
α-glucosidase; fatty acids
  inhibition mechanism: mixed-type

## hydroxyglutaric acid [HGA]
α-glucosidase; from Paenibacillus sp. TKU042
  IC50: 220 µg/mL
